EC50 data for 30 compounds are collected here from patent publication US8822471B2, “Compounds, pharmaceutical compositions and uses thereof” (Boehringer Ingelheim International GmbH, priority 2011, dated 2014).

This assay addresses T1, human GPR119 (Homo sapiens, UniProt Q8TDV5).
T1 construct: expression vector for human GPR119 cDNA (Acc. No. NP_848566); expressed in transfected cells
T1 sequence (Q8TDV5 1-335): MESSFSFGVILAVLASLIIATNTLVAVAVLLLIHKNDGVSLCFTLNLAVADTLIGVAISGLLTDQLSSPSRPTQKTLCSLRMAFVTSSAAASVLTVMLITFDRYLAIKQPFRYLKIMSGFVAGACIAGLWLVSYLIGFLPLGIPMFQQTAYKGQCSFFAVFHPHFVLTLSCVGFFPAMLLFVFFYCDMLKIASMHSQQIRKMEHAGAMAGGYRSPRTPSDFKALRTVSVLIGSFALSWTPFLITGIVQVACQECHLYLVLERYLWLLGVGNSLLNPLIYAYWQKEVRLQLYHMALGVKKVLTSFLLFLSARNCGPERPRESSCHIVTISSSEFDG
The assay can be described thus: AlphaScreen cAMP assay in MIN6 cells stably transfected with human GPR119. It counts as cell-based. Particulars: Min-6/hGPR119 cells, AlphaScreen cAMP Assay Kit, 45 minutes incubation at room temperature. How it is done:
The compounds of formula I according to the invention modulate the activity of the G-protein-coupled receptor GPR119. The effect of the compounds on the activation of GPR119 and on the stimulation of intracellular cAMP concentration is determined using the AlphaScreen cAMP Assay Kit (Cat. No. #6760625R) made by PerkinElmer.
MIN6 cells [Miyazaki J et al. Endocrinology. 1990 July; 127(1):126-32] are stably transfected with an expression vector for human GPR119 cDNA (Acc. No. NP_848566). Min-6/hGPR119 cells are cultured in DMEM, 10% FBS, 50 μM β-mercaptoethanol, 0.3 mg/mL Geniticin, 2 mM GlutaMAX at 37° C. 5% CO2. For the assay, the cells are seeded in Optiplates (white, 384-well, 160 W-barcoded, TC, sterile with lid, Cat. No. #6007688 (Perkin Elmer); 10000 cells/well; 50 μl). The plates covered with lids are then incubated for 24 hours at 37° C./5% CO2. After the medium is aspirated from the wells completely, 10 μl of the test compound are added, the compounds are diluted using stimulating buffer (140 mM NaCl, 3.6 mM KCl, 0.5 mM NaH2PO4, 0.5 mM MgSO4, 1.5 mM CaCl2, 10 mM Hepes, 5 mM NaHCO3; pH 7.4. 0.5 mM IBMX and 0.1% BSA, the final DMSO concentration is 1%). After 45 minutes incubation at room temperature (approx. 20° C.), the cAMP concentrations are determined using the AlphaScreen cAMP Assay Kit (Cat. No. #6760625R from PerkinElmer).
On the technique in general: In Alpha technology, singlet oxygen from a donor bead excites a nearby acceptor bead.

`CC(C)c1noc(N2CCC(N(C(=O)c3ccc(-c4cnco4)cc3)C3CC3)CC2)n1` [Example 1, N-Cyclopropyl-N-[1-(3-isopropyl-[1,2,4]oxadiazol-5-yl)-piperidin-4-yl]-4-oxazol-5-yl-benzamide]: it took 15 nM to reach a half-maximal effect (EC50).

Consider `CC(C)Cc1noc(N2CCC(N(C(=O)c3ccc(-c4cnco4)cc3)C3CC3)CC2)n1` [Example 2, N-Cyclopropyl-N-[1-(3-isobutyl-[1,2,4]oxadiazol-5-yl)-piperidin-4-yl]-4-oxazol-5-yl-benzamide], for which the response was half-maximal at 15 nM (EC50).

As to `CC(C)(C)c1noc(N2CCC(N(C(=O)c3ccc(-c4cnco4)cc3)C3CC3)CC2)n1` [Example 3, N-[1-(3-tert-Butyl-[1,2,4]oxadiazol-5-yl)-piperidin-4-yl]-N-cyclopropyl-4-oxazol-5-yl-benzamide], the EC50 (as a rule, the concentration at which the effect is half-maximal) was 19 nM.

Turning to `COCc1noc(N2CCC(N(C(=O)c3ccc(-c4cnco4)cc3)C3CC3)CC2)n1` [Example 4, N-Cyclopropyl-N-[1-(3-methoxymethyl-[1,2,4]oxadiazol-5-yl)-piperidin-4-yl]-4-oxazol-5-yl-benzamide], the EC50 turned out to be 160 nM.

In turn, `O=C(c1ccc(-c2cnco2)cc1)N(C1CC1)C1CCN(c2nc(-c3ccc(I)cc3)no2)CC1` [Example 5, N-Cyclopropyl-N-{1-[3-(4-iodo-phenyl)-[1,2,4]oxadiazol-5-yl]-piperidin-4-yl}-4-oxazol-5-yl-benzamide] gave an EC50 of 14 nM.

Compound `O=C(c1ccc(-c2cnco2)cc1)N(C1CC1)C1CCN(c2nc(-c3ccccc3)no2)CC1` [Example 6, N-Cyclopropyl-4-oxazol-5-yl-N-[1-(3-phenyl-[1,2,4]oxadiazol-5-yl)-piperidin-4-yl]-benzamide] came in with an EC50 of 23 nM.

For `O=C(c1ccc(-c2cnco2)cc1)N(C1CC1)C1CCN(c2nc(Cc3ccccc3)no2)CC1` [Example 7, N-[1-(3-Benzyl-[1,2,4]oxadiazol-5-yl)-piperidin-4-yl]-N-cyclopropyl-4-oxazol-5-yl-benzamide], the EC50 was 69 nM.

`CCCc1noc(N2CCC(N(C(=O)c3ccc(-c4cnco4)cc3)C3CC3)CC2)n1` [Example 8, N-Cyclopropyl-4-oxazol-5-yl-N-[1-(3-propyl-[1,2,4]oxadiazol-5-yl)-piperidin-4-yl]-benzamide] displayed an EC50 of 36 nM.

Consider `O=C(c1ccc(-c2cnco2)cc1)N(C1CC1)C1CCN(c2nc(-c3ccncc3)no2)CC1` [Example 9, N-Cyclopropyl-4-oxazol-5-yl-N-[1-(3-pyridin-4-yl-[1,2,4]oxadiazol-5-yl)-piperidin-4-yl]-benzamide], for which the EC50 stood at 80 nM.

In turn, `O=C(c1ccc(-c2cnco2)cc1)N(C1CC1)C1CCN(c2nc(-c3ccc(F)cc3)no2)CC1` [Example 10, N-Cyclopropyl-N-{1-[3-(4-fluoro-phenyl)-[1,2,4]oxadiazol-5-yl]-piperidin-4-yl}-4-oxazol-5-yl-benzamide] registered an EC50 of 13 nM.

Compound `O=C(c1ccc(-c2cnco2)cc1)N(C1CC1)C1CCN(c2nc(-c3cccc(Br)c3)no2)CC1` [Example 11, N-{1-[3-(3-Bromo-phenyl)-[1,2,4]oxadiazol-5-yl]-piperidin-4-yl}-N-cyclopropyl-4-oxazol-5-yl-benzamide] returned a concentration for a half-maximal effect (EC50) of 97 nM.

`CCc1noc(N2CCC(N(C(=O)c3ccc(-c4cnco4)cc3)C3CC3)CC2)n1` [Example 12, N-Cyclopropyl-N-[1-(3-ethyl-[1,2,4]oxadiazol-5-yl)-piperidin-4-yl]-4-oxazol-5-yl-benzamide]: it took 51 nM to reach a half-maximal effect (EC50).

Take `C=CCc1noc(N2CCC(N(C(=O)c3ccc(-c4cnco4)cc3)C3CC3)CC2)n1` [Example 13, N-[1-(3-Allyl-[1,2,4]oxadiazol-5-yl)-piperidin-4-yl]-N-cyclopropyl-4-oxazol-5-yl-benzamide]: the midpoint of the response, the EC50, lay at 26 nM.

`O=C(c1ccc(-c2cnco2)cc1)N(C1CC1)C1CCN(c2nc(-c3ccsc3)no2)CC1` [Example 14, N-Cyclopropyl-4-oxazol-5-yl-N-[1-(3-thiophen-3-yl-[1,2,4]oxadiazol-5-yl)-piperidin-4-yl]-benzamide] yielded an EC50 of 27 nM.

`O=C(c1ccc(-c2cnco2)cc1)N(C1CC1)C1CCN(c2nc(-c3cccnc3)no2)CC1` [Example 15, N-Cyclopropyl-4-oxazol-5-yl-N-[1-(3-pyridin-3-yl-[1,2,4]oxadiazol-5-yl)-piperidin-4-yl]-benzamide] came in with an EC50 of 153 nM.

On to `Cc1nc(-c2noc(N3CCC(N(C(=O)c4ccc(-c5cnco5)cc4)C4CC4)CC3)n2)cs1` [Example 16, N-Cyclopropyl-N-{1-[3-(2-methyl-thiazol-4-yl)-[1,2,4]oxadiazol-5-yl]-piperidin-4-yl}-4-oxazol-5-yl-benzamide], for which the EC50 was determined as 206 nM.

For the compound `O=C(c1ccc(-c2ccncc2)cc1)N(C1CC1)C1CCN(c2nc(-c3ccccc3)no2)CC1` [Example 17, N-Cyclopropyl-N-[1-(3-phenyl-[1,2,4]oxadiazol-5-yl)-piperidin-4-yl]-4-pyridin-4-yl-benzamide], the EC50 came out at 23 nM.

In the case of `O=C(c1ccc(-c2cnco2)cc1)N(C1CC1)C1CCN(c2nc(-c3ccccn3)no2)CC1` [Example 18, N-Cyclopropyl-4-oxazol-5-yl-N-[1-(3-pyridin-2-yl-[1,2,4]oxadiazol-5-yl)-piperidin-4-yl]-benzamide], the EC50 stood at 275 nM.

On to `CCc1cnc(N2CCC(N(C(=O)c3ccc(-c4cnco4)cc3)C3CC3)CC2)nc1` [Example 19, N-Cyclopropyl-N-[1-(5-ethyl-pyrimidin-2-yl)-piperidin-4-yl]-4-oxazol-5-yl-benzamide], for which the response was half-maximal at 32 nM (EC50).

The compound `O=C(c1ccc(-c2cnco2)cc1)N(C1CC1)C1CCN(c2ncccn2)CC1` [Example 20, N-Cyclopropyl-4-oxazol-5-yl-N-(1-pyrimidin-2-yl-piperidin-4-yl)-benzamide] returned an EC50 of 393 nM.

`N#Cc1ccc(N2CCC(N(C(=O)c3ccc(-c4cnco4)cc3)C3CC3)CC2)nc1` [Example 21, N-[1-(5-Cyano-pyridin-2-yl)-piperidin-4-yl]-N-cyclopropyl-4-oxazol-5-yl-benzamide] came in with a 50% effective concentration (EC50) of 143 nM.

Compound `O=C(c1ccc(-c2cnco2)cc1)N(C1CC1)C1CCN(c2nc3ccccc3o2)CC1` [Example 22, N-(1-Benzooxazol-2-yl-piperidin-4-yl)-N-cyclopropyl-4-oxazol-5-yl-benzamide] yielded an EC50 of 60 nM.

The compound `CCCc1cnc(N2CCC(N(C(=O)c3ccc(-c4cnco4)cc3)C3CC3)CC2)nc1` [Example 23, N-Cyclopropyl-4-oxazol-5-yl-N-[1-(5-propyl-pyrimidin-2-yl)-piperidin-4-yl]-benzamide] returned an EC50 of 44 nM.

`O=C(c1ccc(-c2cnco2)cc1)N(C1CC1)C1CCN(c2ncc(-c3ccc(Cl)cc3)cn2)CC1` [Example 24, N-{1-[5-(4-Chloro-phenyl)-pyrimidin-2-yl]-piperidin-4-yl}-N-cyclopropyl-4-oxazol-5-yl-benzamide]: the EC50 is 232 nM.

`O=C(c1ccc(-c2cnco2)cc1)N(C1CC1)C1CCN(c2ncc(Br)cn2)CC1` [Example 25, N-[1-(5-Bromo-pyrimidin-2-yl)-piperidin-4-yl]-N-cyclopropyl-4-oxazol-5-yl-benzamide] showed an EC50 of 17 nM.

`COc1cnc(N2CCC(N(C(=O)c3ccc(-c4cnco4)cc3)C3CC3)CC2)nc1` [Example 26, N-Cyclopropyl-N-[1-(5-methoxy-pyrimidin-2-yl)-piperidin-4-yl]-4-oxazol-5-yl-benzamide] gave an EC50 of 47 nM.

Turning to `COc1ccc(-c2cnc(N3CCC(N(C(=O)c4ccc(-c5cnco5)cc4)C4CC4)CC3)nc2)cc1` [Example 27, N-Cyclopropyl-N-{1-[5-(4-methoxy-phenyl)-pyrimidin-2-yl]-piperidin-4-yl}-4-oxazol-5-yl-benzamide], the EC50 was 71 nM.

`O=C(c1ccc(-c2cnco2)cc1)N(C1CC1)C1CCN(c2ccccn2)CC1` [Example 28, N-Cyclopropyl-4-oxazol-5-yl-N-(1-pyridin-2-yl-piperidin-4-yl)-benzamide] came in with an EC50 of 676 nM.

As to `O=C(c1ccc(-c2cnco2)cc1)N(C1CC1)C1CCN(c2ncc(F)cn2)CC1` [Example 29, N-Cyclopropyl-N-[1-(5-fluoro-pyrimidin-2-yl)-piperidin-4-yl]-4-oxazol-5-yl-benzamide], a half-maximal response (EC50) required 78 nM.

With `O=C(c1ccc(-c2cnco2)cc1)N(C1CC1)C1CCN(c2ncc(Cl)cn2)CC1` [Example 30, N-[1-(5-Chloro-pyrimidin-2-yl)-piperidin-4-yl]-N-cyclopropyl-4-oxazol-5-yl-benzamide], the EC50 stood at 19 nM.
